According to ChEMBL document CHEMBL1201862, “PubChem BioAssay data set” (2004):
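These data come from cells grown in 96-well plates and exposed to compound for 48 hours at five concentrations. GI50 = concentration required for 50% inhibition of growth.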 Calls of active or inactive are those of the source. Cut-off read from the data, not from the text of the source: active = GI50 up to about 1.1 µM and inactive = higher.

How the values were obtained:
Experiment in all cases: DTP human tumour cell line panel, 48 h
SR = test system: SR
SF-295 = test system: SF-295
KM12 = test system: KM12
HOP-92 = test system: HOP-92
UO-31 = test system: UO-31
SK-OV-3 = test system: SK-OV-3
CAKI-1 = test system: CAKI-1
HOP-62 = test system: HOP-62
CCRF-CEM = test system: CCRF-CEM
HCT-116 = test system: HCT-116
MCF7 = test system: MCF7
RPMI-8226 = test system: RPMI-8226
ACHN = test system: ACHN
K562 = test system: K562
SK-MEL-5 = test system: SK-MEL-5
786-0 = test system: 786-0
LOX IMVI = test system: LOX IMVI
NCI-H226 = test system: NCI-H226
OVCAR-8 = test system: OVCAR-8
HT-29 = test system: HT-29

Measured: GI50

CCOC(=O)C(=O)N1C(C)=C(C(=O)OCC)CC(C(=O)OCC)=C1C
inactive: SR > 100 µM | SF-295 > 100 µM | KM12 > 100 µM | HOP-92 > 100 µM | UO-31 > 100 µM | SK-OV-3 > 100 µM | CAKI-1 > 100 µM | HOP-62 > 100 µM | CCRF-CEM > 100 µM | HCT-116 > 100 µM | MCF7 > 100 µM | RPMI-8226 > 100 µM | ACHN > 100 µM | K562 > 100 µM | SK-MEL-5 > 100 µM | 786-0 > 100 µM | LOX IMVI > 100 µM

CCOC(=O)C(NC(=O)OCc1ccccc1)C(=O)O (stereo not given)
inactive: SR > 100 µM | NCI-H226 > 100 µM | SF-295 > 100 µM | OVCAR-8 > 100 µM | KM12 > 100 µM | HOP-92 > 100 µM | UO-31 > 100 µM | CAKI-1 > 100 µM | HT-29 > 100 µM | HOP-62 > 100 µM | CCRF-CEM > 100 µM | HCT-116 > 100 µM | MCF7 > 100 µM | RPMI-8226 > 100 µM | ACHN > 100 µM | K562 > 100 µM | SK-MEL-5 > 100 µM | 786-0 > 100 µM | LOX IMVI > 100 µM

CC(C)OC(=O)NNc1c(Cl)cc(Cl)cc1Cl
inactive: SR 55.3 µM | SF-295 77.6 µM | OVCAR-8 > 100 µM | KM12 71.6 µM | HOP-92 23.2 µM | UO-31 55.8 µM | SK-OV-3 > 100 µM | CAKI-1 58.6 µM | HT-29 > 100 µM | HOP-62 > 100 µM | CCRF-CEM 53.6 µM | HCT-116 80.9 µM | MCF7 40.3 µM | RPMI-8226 43.4 µM | ACHN > 100 µM | K562 55.6 µM | SK-MEL-5 22.5 µM | 786-0 > 100 µM | LOX IMVI 76.7 µM

CCOC(=O)CCC(NC(=O)c1ccc(Oc2nc3ccccc3nc2C(=O)OCC)cc1)C(=O)OCC (stereo not given)
inactive: SR > 100 µM | SF-295 > 100 µM | OVCAR-8 41.2 µM | KM12 > 100 µM | HOP-92 > 100 µM | UO-31 > 100 µM | CAKI-1 > 100 µM | HT-29 > 100 µM | HOP-62 63 µM | CCRF-CEM > 100 µM | HCT-116 72.3 µM | MCF7 > 100 µM | RPMI-8226 > 100 µM | ACHN > 100 µM | SK-MEL-5 > 100 µM | 786-0 37.2 µM | LOX IMVI > 100 µM

COc1cc(S(=O)(=O)Nc2ccc(-c3csc(N)n3)cc2)ccc1Cl
inactive: SR 21.9 µM | NCI-H226 26.4 µM | OVCAR-8 22.3 µM | HOP-92 22.6 µM | UO-31 19.8 µM | CAKI-1 20.2 µM | HT-29 20.7 µM | CCRF-CEM 15.5 µM | HCT-116 16.2 µM | MCF7 15.2 µM | RPMI-8226 19.5 µM | ACHN 17.4 µM | K562 18.5 µM | SK-MEL-5 16.6 µM | 786-0 16.4 µM | LOX IMVI 18.7 µM

COC(=N)CCCl
inactive: SR > 100 µM | NCI-H226 > 100 µM | SF-295 > 100 µM | OVCAR-8 > 100 µM | KM12 > 100 µM | HOP-92 > 100 µM | UO-31 > 100 µM | SK-OV-3 > 100 µM | CAKI-1 > 100 µM | HT-29 > 100 µM | HOP-62 > 100 µM | CCRF-CEM > 100 µM | HCT-116 > 100 µM | MCF7 > 100 µM | RPMI-8226 > 100 µM | ACHN > 100 µM | K562 > 100 µM | SK-MEL-5 > 100 µM | 786-0 > 100 µM

COc1cc(Nc2nc3ccccc3n3cccc23)cc(OC)c1OC
inactive: SR > 100 µM | SF-295 63.5 µM | OVCAR-8 20.3 µM | KM12 > 100 µM | HOP-92 44.2 µM | UO-31 > 100 µM | SK-OV-3 37.3 µM | CAKI-1 > 100 µM | HT-29 > 100 µM | HOP-62 19.1 µM | CCRF-CEM > 100 µM | HCT-116 > 100 µM | MCF7 > 100 µM | RPMI-8226 > 100 µM | ACHN > 100 µM | K562 > 100 µM | SK-MEL-5 > 100 µM | 786-0 94.8 µM | LOX IMVI > 100 µM

O=C(O)C(Br)C(Br)c1ccccc1[N+](=O)[O-] (stereo not given)
inactive: SR > 100 µM | NCI-H226 > 100 µM | SF-295 > 100 µM | OVCAR-8 > 100 µM | KM12 > 100 µM | HOP-92 > 100 µM | UO-31 5.46 µM | SK-OV-3 > 100 µM | CAKI-1 > 100 µM | HT-29 > 100 µM | HOP-62 96.2 µM | HCT-116 > 100 µM | MCF7 > 100 µM | RPMI-8226 > 100 µM | ACHN > 100 µM | K562 > 100 µM | SK-MEL-5 > 100 µM | 786-0 > 100 µM | LOX IMVI > 100 µM
